Counter-ions that a name gives are not always drawn. Like-named read-outs stand apart in the source and are kept apart here.
Columns and labels:
HepG2 cells = test: Glycogenolysis inhibition in HepG2 cells; format: cell-based, human; conditions: read-out: IC50 (glycogenolysis inhibition, HepG2 cells)
Excerpt: (§1) To evaluate the effects of all compounds in cells, the glycogenolysis assays were established in both rat and human liver cells based on the published method. […] The inhibitory activities of the derivatives of PSN-357 (e.g. 25–28) were also explored. It is not surprising that the derivatives still retained micromolar inhibitory activities. Introduction of steric bulks to the hydroxyl group (e.g. 33, 40, 42, 48) led to a complete loss of activity. Data analysis indicated no clear SAR for the substitutents in the cell-based assays.
(§2) The inhibition of hepatic glycogenolysis was monitored by the measurement of liver glycogen, which was done quantitatively by the anthrone reagent (Sigma) colorimetric method based on the published method. Isolated rat hepatocytes or HepG2 cells (Sigma) were treated with the test compound or DMSO solvent (final concentration, 0.10%), followed by 60-min incubation with 0.3 nM glucagon (GGN). Assays were terminated by centrifugation, and cells were digested with 30% KOH followed by glycogen determination. The IC50 values were estimated by fitting the inhibition data to a dose-dependent curve using a logistic derivative equation.

isolated rat hepatocytes = test: Glycogenolysis inhibition in isolated rat hepatocytes; format: cell-based; conditions: mean ± S.D. of three, NI means no inhibition
Excerpt: as §1, §2

[1] = target: T1, rabbit muscle GPa (RMGPa) (Oryctolagus cuniculus, UniProt P00489); test: RMGPa inhibition assay (phosphate release from glucose-1-phosphate); format: biochemical; conditions: for IC50: mean ± S.D. of three determinations, NI means no inhibition
T1 sequence (P00489 2-843 limits assumed): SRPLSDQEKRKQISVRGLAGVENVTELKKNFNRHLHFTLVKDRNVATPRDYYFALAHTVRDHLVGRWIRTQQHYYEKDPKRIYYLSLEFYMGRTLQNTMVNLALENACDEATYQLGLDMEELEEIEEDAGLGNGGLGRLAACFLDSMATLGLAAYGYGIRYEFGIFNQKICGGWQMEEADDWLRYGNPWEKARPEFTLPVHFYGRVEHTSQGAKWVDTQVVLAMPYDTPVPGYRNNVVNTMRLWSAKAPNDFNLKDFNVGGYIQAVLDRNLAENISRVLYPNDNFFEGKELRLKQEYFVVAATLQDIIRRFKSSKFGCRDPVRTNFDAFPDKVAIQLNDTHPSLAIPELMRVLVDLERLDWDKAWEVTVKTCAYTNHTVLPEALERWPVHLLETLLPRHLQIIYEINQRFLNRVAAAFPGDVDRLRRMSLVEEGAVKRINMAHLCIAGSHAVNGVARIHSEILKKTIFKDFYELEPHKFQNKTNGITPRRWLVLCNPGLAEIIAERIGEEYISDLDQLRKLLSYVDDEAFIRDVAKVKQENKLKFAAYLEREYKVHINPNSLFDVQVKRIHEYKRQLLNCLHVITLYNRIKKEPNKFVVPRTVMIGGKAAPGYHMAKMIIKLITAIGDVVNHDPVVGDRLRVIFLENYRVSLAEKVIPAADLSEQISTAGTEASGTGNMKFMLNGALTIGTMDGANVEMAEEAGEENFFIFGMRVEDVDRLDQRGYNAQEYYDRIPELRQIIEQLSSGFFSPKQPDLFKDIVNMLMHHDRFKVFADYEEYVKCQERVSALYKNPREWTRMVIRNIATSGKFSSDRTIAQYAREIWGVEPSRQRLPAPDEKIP
Procedure: All the compounds were evaluated for their inhibitory activity against rabbit muscle GPa (RMGPa). The activity of RMGPa was measured through detecting the release of phosphate from glucose-1-phosphate in the direction of glycogen synthesis. CP-91149, a well-known allosteric GP inhibitor, which shares the same binding site with PSN-357, was used as the positive control and the results are summarized in Table 1[21]. […] This remarkable loss of activity was probably due to the direct steric interference by such bulky substituent of cholic acid group. […] The results is consistent with the SARs of PSN-357 that the hydroxyl of piperidine is not an essential group for the GP inhibitory activity that could be modified slightly.
The inhibitory activity of the test compounds against rabbit muscle glycogen phosphorylase a (GPa) was monitored using microplate reader (BIO-RAD) based on the published method. In brief, GPa activity was measured in the direction of glycogen synthesis by the release of phosphate from glucose-1-phosphate. Each test compound was dissolved in DMSO and diluted at different concentrations for IC50 determination. The enzyme was added into 100 μL of buffer containing 50 mM Hepes (pH = 7.2), 100 mM KCl, 2.5 mM MgCl2, 0.5 mM glucose-1-phosphate, 1 mg/mL glycogen and the test compound in 96-well microplates (Costar). After the addition of 150 μL of 1 M HCl containing 10 mg/mL ammonium molybdate and 0.38 mg/mL malachite green, reactions were run at 22 °C for 25 min, and then the phosphate absorbance was measured at 655 nm. The IC50 values were estimated by fitting the inhibition data to a dose-dependent curve using a logistic derivative equation.

[2] = Stability in simulated gastric fluid (SGF); format: in vitro ADME; conditions: SGF pH 1.21 with pepsin, 2 μM, 37 °C, 24 h incubation
Procedure: (§3) All the conjugates were tested for their chemical and metabolic stability in multiple assays, including simulated gastric fluid (SGF), simulated interstinal fluid (SIF), mouse plasma, and mouse liver microsome (MLM).
(§4) For the stability in SGF (Fig. 8) and SIF (Fig. 9), the conjugates could be divided into three groups: (1) stable conjugates 2, 6 and 9. […] The two conjugates were degraded within 6 h and 1 h in SGF and SIF, respectively, with alomost no conjugates at the end of the 24 h incubation in both SGF and SIF; (3) complicated conjugates 3, 4, 5 and 8.
(§5) The simulated gastrointestinal fluids were prepared according to USP specifications. For SGF, NaCl (0.12 g) and pepsin (0.18 g, from porcine stomach mucosa) was dissolved in HCl (0.42 mL) and sufficient H2O was added to make 60 mL. The pH of the test solution was determined as 1.21 by pH meter. For the SIF, KH2PO4 (0.408 g) and pancreatin (0.6 g, from porcine pancreas) was dissolved in H2O (60 mL). The pH of the test solution was determined as 6.79 by pH meter. Each test compound was dissolved in DMSO and diluted to a final concentration of 2 μM in SIF and SGF. The final concentrations of DMSO and CH3CN in the incubation mixture were 0.2% and 0.45%. Aliquots of these solutions were pipetted into glass tubes, and placed in a 37 °C shaking water bath. Test samples at corresponding time point (1, 2, 6, 24 h) were removed at the end of incubation time and immediately mixed with 800 μL of cold acetonitrile containing 500 ng/mL tolbutamide (internal standard). Samples were subjected to centrifuge at 4000 rpm, 4 °C for 20 min. Aliquots 60 μL of supernatant was combined with 120 μL water for LC-MS/MS analysis.

[3] = Stability in simulated intestinal fluid (SIF); format: in vitro ADME; conditions: SIF pH 6.79 with pancreatin, 2 μM, 37 °C
Procedure: as §3, §4, §5

[4] = Stability in mouse liver microsomes (MLM); format: in vitro ADME; conditions: C57BL/6, pH 7.4, n = 3
Procedure: Additionally, the compounds’ stability in microsome were evaluated by measuring the rate of compounds consumpation in MLM and the results are shown in Table 3.
The microsomal pellet was suspended in potassium phosphate buffer (100 mM, pH 7.4), 10 μM test compound or positive control (diclofenac) was added. Liver microsomes from C57BL/6 mice (BD Gentest) were pooled. The mixture of microsome solution and compound was incubated at 37 °C for about 10 min in the presence of a NADPH-regenerating system, consisting of 0.02 M DL-isocitric acid (trisodium salt), 0.1 mg/mL isocitrate dehydrogenase and 1 mM NADPH. The addition of ice-cold CH3CN (including 100 ng/mL tolbutamide as internal standard) terminated the reaction. The mixture was vortexed for approx (30 s), centrifuged (20 min, 4000 rpm) and the supernatant was collected and analysed by LC-MS/MS method.

[5] = Homo sapiens, HepG2, 1 h, HepG2 cells, 60-min incubation with 0.3 nM glucagon, mean ± S.D. of three, NI means no inhibition
[6] = Hepatocyte, 1 h, isolated rat hepatocytes, 60-min incubation with 0.3 nM glucagon, read-out: IC50 (glycogenolysis inhibition, rat hepatocytes)

| Compound | IC50 [1] | IC50 (HepG2 cells; [5]) | IC50 (isolated rat hepatocytes; [6]) | melting point | also measured |
| --- | --- | --- | --- | --- | --- |
| CN(C)C(=O)[C@H](O)[C@H](Cc1ccccc1)NC(=O)c1cc2cc(Cl)ccc2[nH]1 [CP-91149, reference compound] | 0.09 ± 0.04 µM |  |  |  | IC50 (HepG2 cells; HepG2 cells, 60-min incubation with 0.3 nM glucagon, mean ± S.D. of three, NI means no inhibition): 2.53 ± 0.78 µM; IC50 (isolated rat hepatocytes; isolated rat hepatocytes, 60-min incubation with 0.3 nM glucagon, read-out: IC50 (glycogenolysis inhibition, rat hepatocytes)): 3.08 ± 1.16 µM |
| O=C(CCc1ccccc1/N=N/c1ccc(C(=O)O)cc1)OC1CCN(C(=O)[C@H](Cc2ccc(F)cc2)NC(=O)c2cc3cc(Cl)ncc3[nH]2)CC1 [Compound 48] | 3.11 ± 0.05 µM | 9.18 ± 7.42 µM | 35 ± 3.46 µM | 127 to 129 °C |  |
| CC(C)(C)OC(=O)C[C@H](NC(=O)OC(C)(C)C)C(=O)OC1CCN(C(=O)[C@H](Cc2ccc(F)cc2)NC(=O)c2cc3cc(Cl)ncc3[nH]2)CC1 [Compound 25] | 0.81 ± 0.077 µM | 15.1 ± 4.11 µM | 10.2 ± 1.13 µM | 118 to 120 °C |  |
| CC(C)(C)OC(=O)c1ccc(/N=N/c2ccccc2CCC(=O)OC2CCN(C(=O)[C@H](Cc3ccc(F)cc3)NC(=O)c3cc4cc(Cl)ncc4[nH]3)CC2)cc1 [Compound 47] |  |  | 97.6 ± 1.1 µM | 123 to 125 °C |  |
| CC(C)(C)OC(=O)N[C@@H](Cc1ccccc1)C(=O)N[C@@H](CCCCNC(=O)OCC1c2ccccc2-c2ccccc21)C(=O)OC1CCN(C(=O)[C@H](Cc2ccc(F)cc2)NC(=O)c2cc3cc(Cl)ncc3[nH]2)CC1 [Compound 40] | 3.44 ± 0.22 µM | 33.6 ± 12.2 µM | 38.4 ± 5.76 µM |  |  |
| N[C@@H](CO)C(=O)OC1CCN(C(=O)[C@H](Cc2ccc(F)cc2)NC(=O)c2cc3cc(Cl)ncc3[nH]2)CC1 [Compound 28] | 0.52 ± 0.01 µM | 2.88 ± 0.16 µM | 13.6 ± 0.23 µM |  | fold less potent than PSN-357 (RMGPa) ([1]; vs PSN-357): approximately 1.25 fold |
| CC(C)[C@H](NC(=O)OC(C)(C)C)C(=O)N[C@@H](C)C(=O)OC1CCN(C(=O)[C@H](Cc2ccc(F)cc2)NC(=O)c2cc3cc(Cl)ncc3[nH]2)CC1 [Compound 33] | 27 ± 6.39 µM |  | 11.1 ± 3.67 µM | 151 to 153 °C |  |
| CC(CCC(=O)NC(Cc1ccccc1)C(=O)NC(CCCCNC(=O)OCC1c2ccccc2-c2ccccc21)C(=O)OC1CCN(C(=O)C(Cc2ccc(F)cc2)NC(=O)c2cc3cc(Cl)ncc3[nH]2)CC1)C1CCC2C3C(O)CC4CC(O)CCC4(C)C3CC(O)C12C (centres unmarked) [Compound 42] | 15.4 ± 0.89 µM |  | 5.56 ± 2.41 µM | 149 to 151 °C | IC50 (HepG2 cells; Homo sapiens, HepG2, 1 h): 180 ± 51.2 µM |
| C[C@H](NC(=O)CC[C@@H](C)[C@H]1CC[C@H]2[C@@H]3[C@H](O)C[C@@H]4C[C@H](O)CC[C@]4(C)[C@H]3C[C@H](O)[C@]12C)C(=O)OC1CCN(C(=O)[C@H](Cc2ccc(F)cc2)NC(=O)c2cc3cc(Cl)ncc3[nH]2)CC1 [Conjugate 3] | 40.5 ± 15.7 µM |  |  |  | IC50 (isolated rat hepatocytes; Rattus norvegicus, Hepatocyte, 1 h, read-out: IC50 (glycogenolysis inhibition, rat hepatocytes), isolated rat hepatocytes, 60-min incubation with 0.3 nM glucagon): 632 ± 99.4 µM; stability in SGF (in words) [2]: relatively stable; time within which degraded in SIF [3]: ≤ 1 h; CLint scaled at 10 μM [4]: 200 mL/min/kg; half-life at 10 μM [4]: 27.4 min; microsomal CLint at 10 μM [4]: 50.6 µL/min/mg |
| CC(C)[C@H](N)C(=O)OC1CCN(C(=O)[C@H](Cc2ccc(F)cc2)NC(=O)c2cc3cc(Cl)ncc3[nH]2)CC1 [Compound 27] | 0.88 ± 0.17 µM | 16.8 ± 3.71 µM | 14.7 ± 4.99 µM |  |  |
| C[C@H](N)C(=O)OC1CCN(C(=O)[C@H](Cc2ccc(F)cc2)NC(=O)c2cc3cc(Cl)ncc3[nH]2)CC1 [Compound 26] | 0.56 ± 0.043 µM | 6.99 ± 2.1 µM | 9.79 ± 9.65 µM |  |  |
| CC(C)[C@H](N)C(=O)OC1CCN(C(=O)[C@H](Cc2ccc(F)cc2)NC(=O)c2cc3cc(Cl)ncc3[nH]2)CC1 (as salt: hydrochloride) [Compound 27] |  |  |  | 214 to 216 °C |  |
| O=C(O)Cc1ccccc1Nc1c(Cl)cccc1Cl [Diclofenac, diclofenac, reference compound] |  |  |  |  | CLint scaled at 10 μM [4]: 208 mL/min/kg; half-life at 10 μM [4]: 26.3 min; microsomal CLint at 10 μM [4]: 52.6 µL/min/mg |

Source: PMC5320518, “Novel Liver-targeted conjugates of Glycogen Phosphorylase Inhibitor PSN-357 for the Treatment of Diabetes: Design, Synthesis, Pharmacokinetic and Pharmacological Evaluations” (Scientific Reports, 2017)
